Patent publication US10071962B2, “Androgen receptor modulators and methods for their use” (British Columbia Cancer Agency Branch, priority 2014, dated 2018)

molecular target: T1, androgen receptor (AR) (Homo sapiens, UniProt P10275, T878A); assay: PSA (6.1 kb)-luciferase reporter assay in LNCaP cells, R1881-induced AR transcriptional activity; assay type: cell-based; settings: LNCaP cells transfected with PSA (6.1 kb)-luciferase; 1 h pre-treatment, R1881 1 nM, 48 h; various concentrations
T1 construct: they express endogenous androgen receptor (AR) and secrete prostate-specific antigen (PSA); endogenous in cells; host or cells: LNCaP
T1 sequence (P10275 1-920 T878A): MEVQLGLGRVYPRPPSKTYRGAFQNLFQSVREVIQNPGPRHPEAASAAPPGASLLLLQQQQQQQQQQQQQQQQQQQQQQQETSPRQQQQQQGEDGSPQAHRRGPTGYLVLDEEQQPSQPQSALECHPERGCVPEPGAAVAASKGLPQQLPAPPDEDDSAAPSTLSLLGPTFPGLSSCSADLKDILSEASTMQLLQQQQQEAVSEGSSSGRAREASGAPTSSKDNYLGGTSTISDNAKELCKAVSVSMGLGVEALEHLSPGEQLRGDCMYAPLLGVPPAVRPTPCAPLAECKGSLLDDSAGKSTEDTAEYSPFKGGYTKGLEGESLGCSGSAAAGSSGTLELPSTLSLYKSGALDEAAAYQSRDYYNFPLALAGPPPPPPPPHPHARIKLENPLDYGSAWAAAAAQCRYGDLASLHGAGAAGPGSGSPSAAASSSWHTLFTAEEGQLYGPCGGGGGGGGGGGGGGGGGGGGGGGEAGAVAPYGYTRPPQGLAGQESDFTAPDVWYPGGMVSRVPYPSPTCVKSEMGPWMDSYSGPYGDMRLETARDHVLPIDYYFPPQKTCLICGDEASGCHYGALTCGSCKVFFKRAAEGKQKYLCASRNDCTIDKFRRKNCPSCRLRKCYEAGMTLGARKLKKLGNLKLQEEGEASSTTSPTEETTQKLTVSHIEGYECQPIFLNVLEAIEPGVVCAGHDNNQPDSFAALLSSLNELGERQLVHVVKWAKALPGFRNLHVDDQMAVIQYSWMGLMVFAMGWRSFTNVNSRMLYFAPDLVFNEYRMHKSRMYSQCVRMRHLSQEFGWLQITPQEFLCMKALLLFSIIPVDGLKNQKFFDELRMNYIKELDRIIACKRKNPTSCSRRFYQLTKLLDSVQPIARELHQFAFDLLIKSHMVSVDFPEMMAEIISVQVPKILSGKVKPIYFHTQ
Procedure: R1881 (a synthetic androgen) is employed since it is stable and avoids problems associated with the labile physiological ligand dihydrotestosterone (DHT).
LNCaP (2.4×10^4 cell/well) cells were seeded on 24-well plates overnight before transfection with PSA (6.1 kb)-luciferase plasmid (0.25 ug/well) in serum-free, red phenol-free media. The next day, cells were pre-treated with compounds of the invention for 1 hour before the addition of synthetic androgen, R1881 (1 nM) to transactivate androgen receptor (AR). After 48 h of incubation with R1881, the cells were harvested, and relative luciferase activity was determined as a read-out for androgen receptor (AR) transcriptional activity relative to a control. Test compounds were added to the cells at various concentrations and activity for each treatment was normalized to the predicted maximal activity induction (in the absence of test compounds, vehicle only). Transfection experiments were performed using triplicate wells.

| Structure (SMILES) | luciferase activity relative to the control (read-out for AR transcriptional activity) |
| --- | --- |
| CCC(=O)N[C@H](CCC(Cl)(Cl)Cl)C(=O)N1C(=O)C=C(OC)[C@@H]1CC(C)C [Compound 1-7c] | decrease in luciferase activity relative to the control |
| CCC(=O)N[C@@H](CCC(Cl)(Cl)Cl)C(=O)N1C(=O)C=C(OC)[C@H]1CCC(Cl)(Cl)Cl [Compound 1-1b] | decrease in luciferase activity relative to the control |
| CCC(=O)N[C@H](CCC(Cl)(Cl)Cl)C(=O)N1C(=O)C=C(OC)[C@@H]1CCC(Cl)(Cl)Cl [Compound 1-1c] | decrease in luciferase activity relative to the control |
| CCC(=O)N[C@H](CC(C)C)C(=O)N1C(=O)C=C(OC)[C@H]1CCC(Cl)(Cl)Cl [Compound 1-8d] | slight increase in luciferase activity relative to the control |
| CCC(=O)N[C@H](CC(C)C)C(=O)N1C(=O)C=C(OC)[C@@H]1CCC(Cl)(Cl)Cl [Compound 1-8c] | decrease in luciferase activity relative to the control |
| COC1=CC(=O)N(C(=O)[C@H](N)CCC(Cl)(Cl)Cl)[C@@H]1CCC(Cl)(Cl)Cl [Compound 1-4d] | decrease in luciferase activity relative to the control |
| CCC(=O)N[C@@H](CCC(Cl)(Cl)Cl)C(=O)N1C(=O)C=C(OC)[C@@H]1CCC(Cl)(Cl)Cl [Compound 1-1a] | decrease in luciferase activity relative to the control |
| CCC(=O)N[C@H](CCC(Cl)(Cl)Cl)C(=O)N1C(=O)C=C(OC)[C@H]1CCC(Cl)(Cl)Cl [Compound 1-1d] | decrease in luciferase activity relative to the control |
| CCS(=O)(=O)N[C@H](CCC(Cl)(Cl)Cl)C(=O)N1C(=O)C=C(OC)[C@H]1CCC(Cl)(Cl)Cl [Compound 1-6d] | decrease in luciferase activity relative to the control |
| C#CCCC(=O)N[C@H](CCC(Cl)(Cl)Cl)C(=O)N1C(=O)C=C(OC)[C@@H]1CCC(Cl)(Cl)Cl [Compound 1-2c] | decrease in luciferase activity relative to the control |
| COC1=CC(=O)N(C(=O)[C@H](N)CCC(Cl)(Cl)Cl)[C@H]1CCC(Cl)(Cl)Cl [Compound 1-4c] | decrease in luciferase activity relative to the control |
| C#CCCC(=O)N[C@H](CCC(Cl)(Cl)Cl)C(=O)N1C(=O)C=C(OC)[C@H]1CCC(Cl)(Cl)Cl [Compound 1-2d] | decrease in luciferase activity relative to the control |
| CCC(=O)N[C@H](CCC(Cl)(Cl)Cl)C(=O)N1C(=O)C=C(OC)[C@H]1CC(C)C [Compound 1-7d] | decrease in luciferase activity relative to the control |
| C#CCCC(=O)N[C@H](CCC(Cl)(Cl)Cl)C(=O)N1C(=O)C=C(OC)[C@@H]1CC(C)C [Compound 1-9c] | decrease in luciferase activity relative to the control |
